Tests used:
[1] = biological target: T1, 14-3-3ζ/Tau pS2 peptide interaction (Homo sapiens, UniProt P63104); experiment: Fluorescence anisotropy 14-3-3ζ titration in the presence of 250 μM compound and Tau pS2 peptide; assay type: binding; details: for SF250μM (stabilization factor): 250 μM compound, apparent KD compared to internal DMSO reference
T1 construct: made in house; host or cells: NiCo21 (DE3) E. coli
T1 sequence (P63104 1-245): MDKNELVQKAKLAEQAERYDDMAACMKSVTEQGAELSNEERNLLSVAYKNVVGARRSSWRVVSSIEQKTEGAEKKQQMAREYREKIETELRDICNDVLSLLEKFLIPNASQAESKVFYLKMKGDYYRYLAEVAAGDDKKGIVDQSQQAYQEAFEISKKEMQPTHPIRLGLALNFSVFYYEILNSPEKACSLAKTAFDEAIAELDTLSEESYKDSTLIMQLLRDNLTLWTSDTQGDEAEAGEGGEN
Experimental: On the other hand, the PPI stabilizing potency of series 1 compounds was highly dependent on the position and chemical property of the substituent. […] The compound screen for these compounds was further complemented by 14-3-3ζ titration assays in the presence of a constant concentration of compound (250 μM) and Tau pS2 peptide (10 nM) (Fig. 3c, ESI ^† Fig. S6).
This statement is strengthened by the diminished stabilizing activity when shifting the more polar chloro substituent from the para (14) to the ortho (5) to the meta position (8), respectively. […]
chromatography (HisTrap high performance cartridges, Cytiva). Typically two 5 mL columns were used for a 2 L culture in which the lysate was loaded on the column, washed with 10 CV wash buffer (50 mM Hepes, pH 8.0, 300 mM NaCl, 25 mM imidazole, 2 mM βME), and eluted with several fractions (2-4 CV) of elution buffer (50 mM Hepes, pH 8.0, 300 mM NaCl, 250 mM imidazole, 2 mM βME). Fractions containing the 14-3-3 protein were combined and dialyzed into 25 mM HEPES pH 8.0, 200 mM NaCl, 10 mM MgCl2, 2 mM βME, followed by dialysis into 25 mM HEPES, 100 mM NaCl, 10 mM MgCl2, 500 μM TCEP (adjusted to pH 8.0). Dialyzed protein was concentrated to ∼40 mg/mL, analyzed by Q -Tof LC/MS, and aliquots were flash -frozen for storage at −80 °C. For 14 -3-3σ∆c, 1 mg TEV per 100 mg purified protein was added to the dialysis to remove the purification tag. The cleaved sample was then again loaded on a 10 mL Ni-NTA column to separate the cleaved product from the expression tag and residual uncleaved protein. The flowthrough was loade d on a Superdex 75 pg 16/60 size exclusion column (GE Life Sciences) using 25 mM HEPES, 100 mM NaCl, 10 mM MgCl2, 500 μM TCEP (adjusted to pH = 8.0) as running buffer. Fractions containing the 14 -3-3 protein were pooled and concentrated to ∼60 mg/mL, analyzed Q -Tof LC/MS, and aliquots were flash -frozen for storage at −80°C.
(§1) Fluorescence Anisotropy – compound titration
Compound titration assays were performed by titrating compounds (in 1% DMSO, starting at 500 μM) in a 2-fold dilution series to preformed complex of fluorescein -labeled Tau pS2 (10 nM) and 14 -3-3ζ (100 nM) (which represents approximately 20% bound Tau pS2 peptide to 14 -3-3ζ to allow further complex formation by addition of fragments 1) in FA buffer (10 mM HEPES pH 7.4, 150 mM NaCl, 50 µM TCEP, 0.1% (v/v) Tween20, 0.1% (w/v) BSA). Dilution series were made in polystyrene low -volume 384 -well plates (Corning #4514, Black Round Bottom). Measurements were performed directly after plate preparation, using a Tecan SPARK plate reader at room temperature ( λex: 485±20 nm; λem: 535±25 nm; mirror: automatic; flashes: 30; settle time: 1 ms; gain: optimal; Z -position: calculated from well). Wells containing only fluorescein labelled peptide were used to set as G -factor calibrated from these wells. All data were analyzed using GraphPad Prism (10.0.1) and fitted with a four -parameter logistic model (4PL) to determine binding affinities (dissociation constant, KD). All data shown is background corrected for the signal without 14 -3-3ζ and the mean and standard deviation of technical duplicate is plotted, assay performed in a scientific duplicate for hit compounds.
Fluorescence Anisotropy – 14-3-3 titrations in the presence of compound To characterize the affinity of the Tau peptides for 14-3-3 in the presence of compound, 14-3-3ζ or γ was titrated in a 2-fold dilution series starting at 400 (for the 14-3-3ζ titrations to Tau pS2) or 800 (for the 14-3-3γ titrations to Tau pS214 or pS324) µM. 14-3-3 was added to 10 nM of fluorescein-labeled peptide (Tau pS2, Tau pS214 or Tau pS324) in the presence of 250 µM compound (1% DMSO). The assays were performed in a similar way as described above. Data shown is the average and standard deviation of a technical duplicate, top plateau corrected where needed, assay performed in a scientific duplicate.
Fluorescence Anisotropy – peptide screen […]

[2] = system: 14-3-3γ/Tau pS324 interaction; experiment: Fluorescence anisotropy 14-3-3γ titration with compound and monovalent Tau pS324 peptide; assay type: binding; details: for apparent cooperativity factor (app. α), 14-3-3γ/Tau pS324: 2D titrations, 14-3-3γ titrated at varied compound concentrations, saturation of the ratio
Experimental: FA assays in which 14-3-3γ was titrated to a constant concentration of compound (250 μM) in the presence of the distinct monovalent Tau peptide (10 nM) were performed.
The determined stabilization factors are concentration-dependent (here 250 μM of compound) and might differ based on assay design. […] The app. α-factors of these compounds for both 14-3-3/Tau complexes were determined by 14-3-3γ titrations in the presence of varied concentrations of the particular compound (Fig. 5d and e). Both compounds reached saturation for both 14-3-3γ/Tau complexes enabling accurate determination of the α-factor. The app. α-factors of aldehydes 1 and 18 were plotted for both 14-3-3γ/Tau complexes to investigate phospho-binding site selective cooperativity (Fig. 5f and h). To do so, the stabilization factors at a given compound concentration were plotted against the compound concentration, leading to the determination of the app. α-factors. […]
chromatography (HisTrap high performance cartridges, Cytiva). […] Dialyzed protein was concentrated to ∼40 mg/mL, analyzed by Q -Tof LC/MS, and aliquots were flash -frozen for storage at −80 °C. […] Fractions containing the 14 -3-3 protein were pooled and concentrated to ∼60 mg/mL, analyzed Q -Tof LC/MS, and aliquots were flash -frozen for storage at −80°C.
as §1
Compound titration assays were performed by titrating compounds (in 1% DMSO, starting at 500 μM) in a 2-fold dilution series to preformed complex of fluorescein -labeled Tau pS2 (10 nM) and 14 -3-3ζ (100 nM) (which represents approximately 20% bound Tau pS2 peptide to 14 -3-3ζ to allow further complex formation by addition of fragments 1) in FA buffer (10 mM HEPES pH 7.4, 150 mM NaCl, 50 µM TCEP, 0.1% (v/v) Tween20, 0.1% (w/v) BSA). […] Measurements were performed directly after plate preparation, using a Tecan SPARK plate reader at room temperature ( λex: 485±20 nm; λem: 535±25 nm; mirror: automatic; flashes: 30; settle time: 1 ms; gain: optimal; Z -position: calculated from well). […]

| SMILES | SF250μM (stabilization factor) [1] | stabilization of the 14-3-3ζ/Tau pS2 peptide complex ([1]; screening hits) [fold] | SF250μM for the 14-3-3γ/Tau pS324 complex ([2]; 250 μM compound, 10 nM Tau pS324 peptide, internal DMSO reference) | apparent cooperativity factor (app. α), 14-3-3γ/Tau pS324 [2] |
| --- | --- | --- | --- | --- |
| CCc1ccc(-c2nccn2-c2ccc(C=O)c(Br)c2)cc1 [Compound 18] | 37 | – | 3.2 | 3.6 |
| O=Cc1ccc(-n2ccnc2-c2ccc(F)cc2)cc1Br [Compound 13] | 33 | – | – | – |
| N#Cc1ccc(-c2nccn2-c2ccc(C=O)c(Br)c2)cc1 [Compound 22] | 34 | – | – | – |
| O=Cc1ccc(-n2ccnc2-c2ccc(OC(F)(F)F)cc2)cc1Br [Compound 21] | 11 | – | – | – |
| O=Cc1ccc(-n2ccnc2-c2ccc(C(F)(F)F)cc2)cc1Br [Compound 20] | 13 | – | – | – |

Second part, led by results:

| SF250μM (stabilization factor) [1] | stabilization of the 14-3-3ζ/Tau pS2 peptide complex ([1]; screening hits) [fold] | SMILES | SF250μM for the 14-3-3γ/Tau pS324 complex ([2]; 250 μM compound, 10 nM Tau pS324 peptide, internal DMSO reference) | apparent cooperativity factor (app. α), 14-3-3γ/Tau pS324 [2] |
| --- | --- | --- | --- | --- |
| 3.1 | – | O=Cc1ccc(-n2ccnc2-c2ccc(I)cc2)cc1Br [Compound 15] | – | – |
| 10 | – | Cc1cccc(-c2nccn2-c2ccc(C=O)c(Br)c2)c1 [Compound 6] | – | – |
| 29 | – | Cc1ccc(-c2nccn2-c2ccc(C=O)c(Br)c2)cc1 [Compound 11] | – | – |
| 8.9 | – | O=Cc1ccc(-n2ccnc2-c2ccc(Cl)cc2)cc1Br [Compound 14] | – | – |
| 23 | 23 | O=Cc1ccc(-n2ccnc2-c2ccccc2)cc1Br [Compound 1] | – | 6.8 |

From paper PMC11892739, “Site-specific molecular glues for the 14-3-3/Tau pS214 protein–protein interaction via reversible covalent imine tethering” (RSC Medicinal Chemistry, 2025)
